The target of one data set is T1, CDK2/CycE (Homo sapiens, UniProt P24941).
T1 construct: GST; purchased Dr. Dieter Marmé, Klinik für Tumorbiologie, Freiburg (obtained from an outside laboratory); host or cells: baculovirus-infected Sf9 insect cells
As to the kind of experiment: CDK2/CycE kinase assay. The data set is classed as biochemical. The conditions noted are these: recombinant CDK2/CycE-GST, histone IIIS substrate, 0.5 μm ATP, 15 minutes at 22° C. The protocol:
Recombinant CDK2- and CycE-GST-fusion proteins, purified from baculovirus-infected insect cells (Sf9), were obtained by Dr. Dieter Marmé, Klinik für Tumorbiologie [Clinic for Tumor Biology], Freiburg. Histone IIIS, which was used as a kinase substrate, was purchased by the Sigma Company.
CDK2/CycE (50 ng/measuring point) was incubated for 15 minutes at 22° C. in the presence of various concentrations of test substances (0 μm, as well as within the range of 0.01-100 μm) in assay buffer [50 mmol of tris/HCl pH 8.0, 10 mmol of MgCl2, 0.1 mmol of Na ortho-vanadate, 1.0 mmol of dithiothreitol, 0.5 μm of adenosine triphosphate (ATP), 10 μg/measuring point of histone IIIS, 0.2 μCi/measuring point of ^33P-gamma ATP, 0.05% NP40, 12.5% dimethyl sulfoxide]. The reaction was stopped by adding EDTA solution (250 mmol, pH 8.0, 14 μl/measuring point).
From each reaction batch, 10 μl was applied to P30 filter strips (Wallac Company), and non-incorporated ^33P-ATP was removed by subjecting the filter strips to three washing cycles for 10 minutes each in 0.5% phosphoric acid. After the filter strips were dried for one hour at 70° C., the filter strips were covered with scintillator strips (MeltiLex™ A, Wallac Company) and baked for one hour at 90° C. The amount of incorporated ^33P (substrate phosphorylation) was determined by scintillation measurement in a gamma-radiation measuring device (Wallac).

For another data set, the system named is MCF-7 cells. As to the kind of experiment: Proliferation assay (crystal violet). The data set is classed as cell-based. Particulars: MCF7, 96 h, MCF-7 human tumor cells, 4 days incubation. The procedure: Cultivated human tumor cells (as indicated) were flattened out at a density of 5000 cells/measuring point in a 96-well multititer plate in 200 μl of the corresponding growth medium. After 24 hours, the cells of one plate (zero-point plate) were colored with crystal violet (see below), while the medium of the other plates was replaced by fresh culture medium (200 μl), to which the test substances were added in various concentrations (0 μm, as well as in the range of 0.01-30 μm; the final concentration of the solvent dimethyl sulfoxide was 0.5%). The cells were incubated for 4 days-in the presence of test substances. The cell proliferation was determined by coloring the cells with crystal violet: the cells were fixed by adding 20 μl/measuring point of a 11% glutaric aldehyde solution for 15 minutes at room temperature. After subjecting the fixed cells to three washing cycles with water, the plates were dried at room temperature. The cells were colored by adding 100 μL/measuring point of a 0.1% crystal violet solution (pH was set at 3 by adding acetic acid). […] The extinction was determined by photometry at a wavelength of 595 nm. The change of cell growth, in percent, was calculated by standardization of the measured values to the extinction values of the zero-point plate (=0%) and the extinction of the untreated (0 μm) cells (=100%).

Bounds are passed on as bounds.

As a reminder, the IC50 is the concentration that inhibits the measured activity by half. As a reminder, the melting point is the temperature, or range, at which the solid turns liquid. `COc1ccc(-c2ccc3c(c2)/C(=C2/Nc4ccccc4C2=O)C(=O)N3)cc1` [Example 1.0, 5-(4-Methoxyphenyl)-indirubin] showed a melting point above 300 °C. In addition, at CDK2/CycE, the IC50 was above 5000 nM.
As to `O=C1Nc2ccc(-c3ccccc3)cc2C1=C1Nc2ccccc2C1=O` [Example 1.1], the IC50 at CDK2/CycE was determined as 1000 nM.
As to `CC(C)(C)[Si](C)(C)Oc1cccc(-c2ccc3c(c2)C(=C2Nc4ccccc4C2=O)C(=O)N3)c1` [Example 1.2], the IC50 in the data set on MCF-7 cells was found to be 4000 nM; at CDK2/CycE it was 150 nM.
For `O=C1Nc2ccc(-c3cc(C(F)(F)F)cc(C(F)(F)F)c3)cc2C1=C1Nc2ccccc2C1=O` [Example 1.3], on CDK2/CycE, the IC50 was determined as 600 nM.
Turning to `O=C1Nc2ccc(-c3ccc(Cl)cc3)cc2C1=C1Nc2ccccc2C1=O` [Example 1.4], the IC50 amounted to 500 nM with MCF-7 cells and 30 nM on CDK2/CycE.
For `CC(C)(C)c1ccc(-c2ccc3c(c2)C(=C2Nc4ccccc4C2=O)C(=O)N3)cc1` [Example 1.5], the IC50 on CDK2/CycE turned out to be 300 nM.

For the origin of these results see patent publication US20020132792A1, “Aryl-substituted indirubin derivatives, their production and use” (Schering AG, priority 2000, published 2002).
